These results are taken from patent US20080200454A1, “CARBON-LINKED TETRAHYDRO-PYRAZOLO-PYRIDINE MODULATORS OF CATHEPSIN S” (priority 2007, published 2008).

This test deals with Recombinant human cathepsin S (CatS) (Homo sapiens, UniProt P25774). Briefly: Recombinant human cathepsin S (CatS) inhibition assay, fluorogenic substrate Z-Valine-Valine-Arginine-AMC.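 Note: Baculovirus-expressed CatS in pH 5.0 sodium acetate buffer with DTT and NaCl, fluorescence read each minute over 20 min, inhibition derived from rate slope.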
Chain of Recombinant human cathepsin S (CatS) (P25774 115-331): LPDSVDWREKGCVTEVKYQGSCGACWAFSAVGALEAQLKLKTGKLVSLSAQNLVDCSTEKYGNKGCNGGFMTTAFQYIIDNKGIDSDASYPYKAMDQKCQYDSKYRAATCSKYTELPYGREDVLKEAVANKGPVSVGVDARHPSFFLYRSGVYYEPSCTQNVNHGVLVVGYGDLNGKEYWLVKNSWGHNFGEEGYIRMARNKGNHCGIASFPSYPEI

pIC50: −log10 of the molar value. Read-outs that look alike come from different tables or passages of the source.

A word on the pIC50: it is the negative decadic logarithm of the IC50, by convention in mol/L. Take `CS(=O)(=O)N1CCc2c(c(-c3ccc(Cl)c(C#Cc4ccc(CNCc5ccc(Cl)cc5)cc4)c3)nn2CCCN2CC[C@H](O)C2)C1` [Example 382, (3S)-1-{3-[3-(4-Chloro-3-{[4-({[(4-chlorophenyl)methyl]amino}methyl)phenyl]ethynyl}phenyl)-5-(methylsulfonyl)-4,5,6,7-tetrahydro-1H-pyrazolo[4,3-c]pyridin-1-yl]propyl}pyrrolidin-3-ol]: under “CatS IC50”, the pIC50 was 6.96.
Consider `COc1ccccc1CNCc1ccc(C#Cc2cc(-c3nn(CCCN4CCSCC4)c4c3CN(C(N)=O)CC4)ccc2Cl)cc1` [Example 533, 3-[4-Chloro-3-({4-[({[2-(methyloxy)phenyl]methyl}amino)methyl]phenyl}ethynyl)phenyl]-1-(3-thiomorpholin-4-ylpropyl)-1,4,6,7-tetrahydro-5H-pyrazolo[4,3-c]pyridine-5-carboxamide], for which the pIC50 (CatS IC50) is 7.00.
With `C[C@H]1COCCN1C[C@H](O)Cn1nc(-c2ccc(Cl)c(C#Cc3ccc(CNCc4ccc(Cl)cc4)cc3)c2)c2c1CCN(S(C)(=O)=O)C2` [Example 265, (2S)-1-[3-(4-Chloro-3-{4-[(4-chloro-benzylamino)-methyl]-phenylethynyl}-phenyl)-5-methanesulfonyl-4,5,6,7-tetrahydro-pyrazolo[4,3-c]pyridin-1-yl]-3-((3S)-3-methyl-morpholin-4-yl)-propan-2-ol], the pIC50 is 6.85.
For `NC(=O)N1CCc2c(c(-c3ccc(Cl)c(C#Cc4ccc(Cl)c(C(=O)N5CCCNCC5)c4)c3)nn2CCCN2CCSCC2)C1` [Example 572, 3-(4-Chloro-3-{[4-chloro-3-(1,4-diazepan-1-ylcarbonyl)phenyl]ethynyl}phenyl)-1-(3-thiomorpholin-4-ylpropyl)-1,4,6,7-tetrahydro-5H-pyrazolo[4,3-c]pyridine-5-carboxamide], the pIC50 (CatS IC50) is 6.77.
In the case of `CC(=O)NCc1ccc(C#Cc2cc(-c3nn(CCCN4CCOCC4)c4c3CN(S(C)(=O)=O)CC4)ccc2Cl)cc1` [Example 72, N-(4-{2-Chloro-5-[5-methanesulfonyl-1-(3-morpholin-4-yl-propyl)-4,5,6,7-tetrahydro-1H-pyrazolo[4,3-c]pyridin-3-yl]-phenylethynyl}-benzyl)-acetamide], the pIC50 is 6.31.
As for `CC(C)(C)OC(=O)NCc1ccc(C#Cc2cc(-c3nn(CCCN4CCOCC4)c4c3CN(S(C)(=O)=O)CC4)ccc2Cl)cc1` [Example 40, (4-{2-Chloro-5-[5-methanesulfonyl-1-(3-morpholin-4-yl-propyl)-4,5,6,7-tetrahydro-1H-pyrazolo[4,3-c]pyridin-3-yl]-phenylethynyl}-benzyl)-carbamic acid tert-butyl ester], the pIC50 is 6.39.
Turning to `C[C@H]1COCCN1CCCn1nc(-c2ccc(Cl)c(CCc3ccc(CNCc4ccc(Cl)cc4)cc3)c2)c2c1CCN(C(=O)C(N)=O)C2` [Example 243, 2-[3-(4-Chloro-3-{2-[4-({[(4-chlorophenyl)methyl]amino}methyl)phenyl]ethyl}phenyl)-1-{3-[(3S)-3-methylmorpholin-4-yl]propyl}-1,4,6,7-tetrahydro-5H-pyrazolo[4,3-c]pyridin-5-yl]-2-oxoacetamide], the pIC50 was 7.40.
In the case of `COC(=O)Cc1ccc(C#Cc2cc(-c3nn(CCCN4CCOCC4)c4c3CN(S(C)(=O)=O)CC4)ccc2Cl)cc1` [Example 10, (4-{2-Chloro-5-[5-methanesulfonyl-1-(3-morpholin-4-yl-propyl)-4,5,6,7-tetrahydro-1H-pyrazolo[4,3-c]pyridin-3-yl]-phenylethynyl}-phenyl)-acetic acid methyl ester], the pIC50 was 6.38.
For the molecule `NC(=O)N1CCc2c(c(-c3ccc(Cl)c(C#Cc4ccc(Cl)cc4)c3)nn2CCCN2CCOCC2)C1` [Example 144, 3-[4-Chloro-3-(4-chloro-phenylethynyl)-phenyl]-1-(3-morpholin-4-yl-propyl)-1,4,6,7-tetrahydro-pyrazolo[4,3-c]pyridine-5-carboxylic acid amide], the negative-log IC50 (pIC50) was 7.22.
In the case of `CS(=O)(=O)N1CCc2c(c(-c3ccc(Cl)c(C#Cc4ccc5c(c4)CN[C@H](C(=O)N4CCCCC4)C5)c3)nn2CCCN2CCOCC2)C1` [Example 486, (3S)-7-({2-Chloro-5-[5-(methylsulfonyl)-1-(3-morpholin-4-ylpropyl)-4,5,6,7-tetrahydro-1H-pyrazolo[4,3-c]pyridin-3-yl]phenyl}ethynyl)-3-(piperidin-1-ylcarbonyl)-1,2,3,4-tetrahydroisoquinoline], the pIC50 was 7.52.
Regarding `COC(=O)CNCc1cc(C#Cc2cc(-c3nn(CCCN4CCOCC4C)c4c3CN(C(N)=O)CC4)ccc2Cl)ccc1Cl` (stereo in doubt) [Example 220, Methyl N-{[5-({5-[5-(aminocarbonyl)-1-{3-[(3S)-3-methylmorpholin-4-yl]propyl}-4,5,6,7-tetrahydro-1H-pyrazolo[4,3-c]pyridin-3-yl]-2-chlorophenyl}ethynyl)-2-chlorophenyl]methyl}glycinate], the pIC50 was 7.52.
Consider `CS(=O)(=O)N1CCc2c(c(-c3ccc(Cl)c(C#Cc4ccc(CNCc5ccc(Cl)cc5)cc4)c3)nn2CCCN2CCC(CO)CC2)C1` [Example 337, (1-{3-[3-(4-Chloro-3-{[4-({[(4-chlorophenyl)methyl]amino}methyl)phenyl]ethynyl}phenyl)-5-(methylsulfonyl)-4,5,6,7-tetrahydro-1H-pyrazolo[4,3-c]pyridin-1-yl]propyl}piperidin-4-yl)methanol], for which the pIC50 (CatS IC50) is 7.15.
Regarding `C[C@H]1COCCN1CCCn1nc(-c2ccc(Cl)c(C#Cc3ccc(Cl)c(CNC[C@H]4CCCO4)c3)c2)c2c1CCN(C(=O)C(N)=O)C2` [Example 268, 2-{3-[4-Chloro-3-(4-chloro-3-{[((2R)-tetrahydro-furan-2-ylmethyl)-amino]-methyl}-phenylethynyl)-phenyl]-1-[3-((3S)-3-methyl-morpholin-4-yl)-propyl]-1,4,6,7-tetrahydro-pyrazolo[4,3-c]pyridin-5-yl}-2-oxo-acetamide], the pIC50 was 7.70.
Regarding `CS(=O)(=O)N1CCc2c(c(-c3ccc(Cl)c(CCCCO)c3)nn2CCCN2CCOCC2)C1` [Example 300, 4-{2-Chloro-5-[5-(methylsulfonyl)-1-(3-morpholin-4-ylpropyl)-4,5,6,7-tetrahydro-1H-pyrazolo[4,3-c]pyridin-3-yl]phenyl}butan-1-ol], the negative-log IC50 (pIC50) was 5.04.
For `C[C@H]1COCCN1C[C@@H](O)Cn1nc(-c2ccc(Cl)c(C#Cc3ccc(CNCc4ccc(Cl)cc4)cc3)c2)c2c1CCN(S(C)(=O)=O)C2` [Example 529, (2R)-1-[3-(4-Chloro-3-{[4-({[(4-chlorophenyl)methyl]amino}methyl)phenyl]ethynyl}phenyl)-5-(methylsulfonyl)-4,5,6,7-tetrahydro-1H-pyrazolo[4,3-c]pyridin-1-yl]-3-[(3S)-3-methylmorpholin-4-yl]propan-2-ol], for the setting “CatS IC50”, the pIC50 is 6.92.
As to `NC(=O)N1CCc2c(c(-c3ccc(Cl)c(C#Cc4ccc(CNCc5ccc(Cl)cc5)cc4)c3)nn2CCCN2CCN(c3ccccn3)CC2)C1` [Example 156, 3-(4-Chloro-3-{[4-({[(4-chlorophenyl)methyl]amino}methyl)phenyl]ethynyl}phenyl)-1-[3-(4-pyridin-2-ylpiperazin-1-yl)propyl]-1,4,6,7-tetrahydro-5H-pyrazolo[4,3-c]pyridine-5-carboxamide], the pIC50 was 7.30.
The same measure, in the same setting: in the case of `CN1CCC(C2CCN(C[C@H](O)Cn3nc(-c4ccc(Cl)c(CCc5ccc(Cl)cc5)c4)c4c3CCN(S(C)(=O)=O)C4)CC2)CC1` [Example 248, (2S)-1-[3-{4-Chloro-3-[2-(4-chlorophenyl)ethyl]phenyl}-5-(methylsulfonyl)-4,5,6,7-tetrahydro-1H-pyrazolo[4,3-c]pyridin-1-yl]-3-(1′-methyl-4,4′-bipiperidin-1-yl)propan-2-ol] it was 7.70.
`CS(=O)(=O)N1CCc2c(c(-c3ccc(Cl)c(C#Cc4cccs4)c3)nn2CCCN2CCOCC2)C1` [Example 12, 3-(4-Chloro-3-thiophen-2-ylethynyl-phenyl)-5-methanesulfonyl-1-(3-morpholin-4-yl-propyl)-4,5,6,7-tetrahydro-1H-pyrazolo[4,3-c]pyridine]: the pIC50 (CatS IC50) is 6.10.
As to `C[C@H]1COCCN1CCCn1nc(-c2ccc(Cl)c(C#Cc3ccc(Cl)c(C(=O)NC[C@@H]4CCNC4)c3)c2)c2c1CCN(C(=O)C(N)=O)C2` [Example 586, 5-{[5-(5-[Amino(oxo)acetyl]-1-{3-[(3S)-3-methylmorpholin-4-yl]propyl}-4,5,6,7-tetrahydro-1H-pyrazolo[4,3-c]pyridin-3-yl)-2-chlorophenyl]ethynyl}-2-chloro-N-[(3R)-pyrrolidin-3-ylmethyl]benzamide], for the setting “CatS IC50”, the pIC50 is 7.70.
Turning to `COC(=O)C1c2ccc(C#Cc3cc(-c4nn(CCCN5CCOCC5)c5c4CN(S(C)(=O)=O)CC5)ccc3Cl)cc2CCN1C(=O)OC(C)(C)C` (stereo not shown) [Example 207, 2-(1,1-Dimethylethyl) 1-methyl 6-({2-chloro-5-[5-(methylsulfonyl)-1-(3-morpholin-4-ylpropyl)-4,5,6,7-tetrahydro-1H-pyrazolo[4,3-c]pyridin-3-yl]phenyl}ethynyl)-3,4-dihydroisoquinoline-1,2(1H)-dicarboxylate], the pIC50 is 5.54.
For `CS(=O)(=O)N1CCc2c(c(-c3ccc(Cl)c(C#Cc4ccc(CNCc5ccc(Cl)cc5)cc4)c3)nn2CCCN2CCCCC2)C1` [Example 181, 1-[4-({2-Chloro-5-[5-(methylsulfonyl)-1-(3-piperidin-1-ylpropyl)-4,5,6,7-tetrahydro-1H-pyrazolo[4,3-c]pyridin-3-yl]phenyl}ethynyl)phenyl]-N-[(4-chlorophenyl)methyl]methanamine], the pIC50 was 7.22.
On the same count and under the same terms, in the case of `NC(=O)N1CCc2c(c(-c3ccc(Cl)c(C#Cc4ccc(COCc5cccnc5)cc4)c3)nn2CCCN2CCSCC2)C1` [Example 161, 3-{4-Chloro-3-[(4-{[(pyridin-3-ylmethyl)oxy]methyl]phenyl)ethynyl]phenyl}-1-(3-thiomorpholin-4-ylpropyl)-1,4,6,7-tetrahydro-5H-pyrazolo[4,3-c]pyridine-5-carboxamide] it was 7.15.
